Common to all, as to format: functional
One test deals with T1, Hexokinase-1 (Homo sapiens, UniProt P19367).
T1 sequence (P19367 whole entry): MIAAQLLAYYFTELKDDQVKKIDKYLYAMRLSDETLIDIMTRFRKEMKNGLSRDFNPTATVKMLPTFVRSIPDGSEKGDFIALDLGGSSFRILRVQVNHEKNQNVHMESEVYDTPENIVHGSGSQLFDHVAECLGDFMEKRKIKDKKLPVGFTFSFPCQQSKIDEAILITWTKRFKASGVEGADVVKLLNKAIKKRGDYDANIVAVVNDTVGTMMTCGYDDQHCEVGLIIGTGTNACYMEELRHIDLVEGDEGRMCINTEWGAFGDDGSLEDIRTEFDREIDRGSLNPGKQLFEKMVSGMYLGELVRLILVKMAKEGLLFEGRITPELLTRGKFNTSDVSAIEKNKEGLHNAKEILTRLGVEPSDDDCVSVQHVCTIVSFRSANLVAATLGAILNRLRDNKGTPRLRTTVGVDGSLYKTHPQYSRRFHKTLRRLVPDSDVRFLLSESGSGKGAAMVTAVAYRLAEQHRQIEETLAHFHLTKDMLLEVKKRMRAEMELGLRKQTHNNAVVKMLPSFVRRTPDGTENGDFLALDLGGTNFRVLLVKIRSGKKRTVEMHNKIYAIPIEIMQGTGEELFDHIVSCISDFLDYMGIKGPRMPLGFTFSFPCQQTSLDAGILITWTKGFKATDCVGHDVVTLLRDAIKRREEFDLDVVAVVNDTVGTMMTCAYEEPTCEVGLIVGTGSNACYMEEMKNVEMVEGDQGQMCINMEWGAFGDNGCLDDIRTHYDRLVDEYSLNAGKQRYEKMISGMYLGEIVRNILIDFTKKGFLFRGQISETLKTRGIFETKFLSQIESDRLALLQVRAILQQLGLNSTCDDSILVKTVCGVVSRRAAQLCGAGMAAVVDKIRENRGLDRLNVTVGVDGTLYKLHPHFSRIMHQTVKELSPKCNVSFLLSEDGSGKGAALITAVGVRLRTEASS
The test is described as follows: HK1 enzyme inhibition by HKDC1 hits, SAR follow-up, selectivity assay for HKDC1 inhibitor project, biochemical, set 2, resazurin fluorescence coupled readout (AID 588356).

The target of another test is T2, Hexokinase HKDC1 (Homo sapiens, UniProt Q2TB90).
T2 sequence (Q2TB90 whole entry): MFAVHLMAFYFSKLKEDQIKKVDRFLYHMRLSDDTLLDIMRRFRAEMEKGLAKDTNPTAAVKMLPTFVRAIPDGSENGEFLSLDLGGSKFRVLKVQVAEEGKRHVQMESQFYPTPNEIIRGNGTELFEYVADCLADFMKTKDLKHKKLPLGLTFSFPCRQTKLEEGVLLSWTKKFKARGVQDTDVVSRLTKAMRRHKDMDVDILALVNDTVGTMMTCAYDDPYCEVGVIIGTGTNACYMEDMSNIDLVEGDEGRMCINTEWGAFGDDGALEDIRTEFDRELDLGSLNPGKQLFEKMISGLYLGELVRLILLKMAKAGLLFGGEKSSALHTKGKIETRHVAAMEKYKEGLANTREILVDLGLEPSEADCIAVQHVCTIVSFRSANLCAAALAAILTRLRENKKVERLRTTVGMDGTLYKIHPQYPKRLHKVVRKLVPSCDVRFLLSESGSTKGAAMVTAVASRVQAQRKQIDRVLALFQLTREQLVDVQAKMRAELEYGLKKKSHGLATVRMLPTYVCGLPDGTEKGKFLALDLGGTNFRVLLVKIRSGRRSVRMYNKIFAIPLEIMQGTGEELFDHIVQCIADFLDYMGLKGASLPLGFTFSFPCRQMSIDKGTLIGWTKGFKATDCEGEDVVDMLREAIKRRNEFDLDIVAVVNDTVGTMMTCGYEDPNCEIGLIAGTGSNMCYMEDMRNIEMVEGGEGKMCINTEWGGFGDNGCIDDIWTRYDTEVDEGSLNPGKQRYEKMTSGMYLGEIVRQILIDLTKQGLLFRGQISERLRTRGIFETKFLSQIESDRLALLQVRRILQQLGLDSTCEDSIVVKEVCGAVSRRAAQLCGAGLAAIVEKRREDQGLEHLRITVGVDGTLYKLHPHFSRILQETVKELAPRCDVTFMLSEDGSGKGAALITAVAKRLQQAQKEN
The test is described as follows: HKDC1 hexokinase inhibitors, SAR follow-up, biochemical, set 2 (AID 588355).

For the next test, the target named is Beta-galactosidase (Escherichia coli, UniProt Q8VNN2). As to the kind of experiment: PubChem AID 485352.
Test [1] deals with Type-1 angiotensin II receptor (Homo sapiens, UniProt P30556). As to the kind of experiment: AT1 receptor antagonists, dose response, selectivity assay for APJ receptor antagonist project, cell-based, uHTS hits (AID 463214).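 Further: antagonist potency against angiotensin II stimulated AT1 response.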

SMILES strings stand for the structures. Calls of active or inactive are those of the source. Some results are limits rather than exact numbers.

Sequence of Beta-galactosidase (Q8VNN2 whole entry): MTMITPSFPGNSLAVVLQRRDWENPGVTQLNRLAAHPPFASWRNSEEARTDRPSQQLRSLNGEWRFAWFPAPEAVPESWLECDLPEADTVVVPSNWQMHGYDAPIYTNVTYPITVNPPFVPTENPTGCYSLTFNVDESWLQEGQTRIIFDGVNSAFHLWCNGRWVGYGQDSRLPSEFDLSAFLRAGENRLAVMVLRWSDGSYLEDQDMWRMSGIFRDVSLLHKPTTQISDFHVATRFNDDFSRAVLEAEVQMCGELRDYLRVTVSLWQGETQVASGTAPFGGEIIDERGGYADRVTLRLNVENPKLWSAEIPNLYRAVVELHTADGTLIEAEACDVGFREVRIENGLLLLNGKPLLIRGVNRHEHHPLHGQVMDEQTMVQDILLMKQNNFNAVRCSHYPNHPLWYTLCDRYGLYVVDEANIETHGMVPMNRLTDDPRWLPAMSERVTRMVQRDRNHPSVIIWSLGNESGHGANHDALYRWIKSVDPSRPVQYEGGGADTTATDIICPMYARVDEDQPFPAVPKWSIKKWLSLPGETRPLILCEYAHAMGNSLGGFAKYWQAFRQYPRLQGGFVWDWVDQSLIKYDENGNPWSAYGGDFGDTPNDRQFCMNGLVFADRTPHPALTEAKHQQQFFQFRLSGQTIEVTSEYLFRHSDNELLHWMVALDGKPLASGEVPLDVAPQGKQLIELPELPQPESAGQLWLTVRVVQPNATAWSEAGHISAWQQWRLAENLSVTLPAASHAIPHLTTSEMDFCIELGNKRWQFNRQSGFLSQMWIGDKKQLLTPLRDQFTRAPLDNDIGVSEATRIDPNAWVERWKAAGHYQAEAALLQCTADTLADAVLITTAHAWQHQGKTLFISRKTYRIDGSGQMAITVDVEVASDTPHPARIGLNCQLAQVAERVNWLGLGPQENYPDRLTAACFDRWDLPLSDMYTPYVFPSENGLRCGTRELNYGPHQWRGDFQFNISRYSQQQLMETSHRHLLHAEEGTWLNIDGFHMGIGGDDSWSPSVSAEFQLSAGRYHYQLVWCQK
Sequence of Type-1 angiotensin II receptor (P30556 whole entry): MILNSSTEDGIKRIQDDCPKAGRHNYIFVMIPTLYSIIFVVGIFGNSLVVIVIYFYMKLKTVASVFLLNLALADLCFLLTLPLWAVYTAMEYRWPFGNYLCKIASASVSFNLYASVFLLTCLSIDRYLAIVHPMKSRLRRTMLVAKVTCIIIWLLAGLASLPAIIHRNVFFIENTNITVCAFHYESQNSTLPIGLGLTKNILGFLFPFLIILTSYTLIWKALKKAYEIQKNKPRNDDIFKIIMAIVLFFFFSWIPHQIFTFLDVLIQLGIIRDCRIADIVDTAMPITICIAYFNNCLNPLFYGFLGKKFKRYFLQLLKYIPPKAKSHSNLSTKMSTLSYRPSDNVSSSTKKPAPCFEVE

A word on the IC50: it is the point on the concentration scale where inhibition reaches its midpoint. For the compound `O=c1c2ccc(F)cc2nc(/C=C/c2cccnc2)n1Cc1ccccc1`, the IC50 at Hexokinase-1 and on Hexokinase HKDC1 was > 80 µM (inactive) throughout.

In the case of `COc1cc2c(cc1OC)-c1cc(Nc3cccc4ccccc34)nc(=O)n1CC2`, the IC50 at Hexokinase-1 and at Hexokinase HKDC1 was > 80 µM (inactive) in each case.

Usually EC50 stands for the concentration at which the effect is half-maximal. In the case of `O=C(O)c1cccc(NC(=S)NC(=O)c2cncc(Br)c2)c1`, at Beta-galactosidase, the EC50 is > 40 µM (inactive). The IC50 in test [1] is reported as > 40 µM (not active).

As to `COc1cccc(N2CC(C)Cn3c2nc2c3c(=O)n(CCN3CCOCC3)c(=O)n2C)c1` (stereo not drawn), the EC50 on Beta-galactosidase is > 40 µM (inactive). Besides, the IC50 in test [1] is > 40 µM (not active).

The values are drawn from ChEMBL document CHEMBL1201862, “PubChem BioAssay data set” (2004).
